The record followed here is ChEMBL document CHEMBL3576787, “Alkaloidal metabolites from a marine-derived Aspergillus sp. fungus” (J Nat Prod, 2015).

In brackets after ≈: the same amount, converted by molar mass. Activity calls are given as the source filed them. The rule behind the calls is not given here.

Experiment [1] has as its target Sortase A (Staphylococcus aureus) (UniProt Q2FV99). Briefly: Inhibition of sortase A (Staphylococcus aureus).
For the next experiment, the system named is Micrococcus luteus. In words: Antimicrobial activity against Micrococcus luteus incubated for 24 hrs. The experiment is classed as functional.
A further experiment concerns K562. Briefly: Cytotoxicity against human K562 cells. Format: functional, cell-based.
The next experiment concerns A549. Briefly: Cytotoxicity against human A549 cells. Format: functional, cell-based.
Another experiment deals with Escherichia coli. In words: Antimicrobial activity against Escherichia coli incubated for 24 hrs. Format: functional.
The next experiment concerns Staphylococcus aureus. In words: Antimicrobial activity against Staphylococcus aureus incubated for 24 hrs. The experiment is classed as functional.
In experiment [2] the target is Isocitrate lyase (Candida albicans) (UniProt Q9P8Q7). In words: Inhibition of Candida albicans isocitrate lyase assessed as reduction in glyoxylate phenylhydrazone formation using phenylhydrazine and isocitrate incubated for 30 mins by spectrophotometry.
Sequence of Isocitrate lyase (Candida albicans) (Q9P8Q7 whole entry): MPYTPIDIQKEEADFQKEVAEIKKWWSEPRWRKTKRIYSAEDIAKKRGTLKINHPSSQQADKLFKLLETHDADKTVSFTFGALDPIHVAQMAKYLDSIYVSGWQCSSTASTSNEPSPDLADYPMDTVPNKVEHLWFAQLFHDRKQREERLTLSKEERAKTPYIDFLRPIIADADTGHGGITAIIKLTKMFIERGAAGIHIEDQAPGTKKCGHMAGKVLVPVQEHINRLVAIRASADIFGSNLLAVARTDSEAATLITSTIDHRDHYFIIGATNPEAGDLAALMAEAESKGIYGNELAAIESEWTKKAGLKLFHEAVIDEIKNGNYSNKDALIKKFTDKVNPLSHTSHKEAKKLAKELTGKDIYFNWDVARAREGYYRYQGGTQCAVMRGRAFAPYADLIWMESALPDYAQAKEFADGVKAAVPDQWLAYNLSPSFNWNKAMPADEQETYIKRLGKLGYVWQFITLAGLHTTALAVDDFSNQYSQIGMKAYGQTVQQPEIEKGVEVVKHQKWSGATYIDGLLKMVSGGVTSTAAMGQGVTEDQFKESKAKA
A further experiment concerns Proteus hauseri. Briefly: Antimicrobial activity against Proteus hauseri incubated for 24 hrs. Format: functional.
The test system of a further experiment is Salmonella typhimurium. Briefly: Antimicrobial activity against Salmonella typhimurium incubated for 24 hrs. The settings on record: Salmonella enterica. The experiment is classed as functional, Salmonella enterica subsp. enterica serovar Typhimurium.
Experiment [3] in a line: Inhibition of porcine cerebral cortex Na+/K+ ATPase using 3-O-methylfluorescein phosphate and […] incubated for 30 mins by spectrophotometry. Format: tissue-based, Sus scrofa.

On to `CC[C@H]1C(=O)N2c3ccccc3[C@]3(O)C[C@@H](n4cnc5ccccc5c4=O)C(=O)N1[C@H]23`, for which the inhibition entry in experiment [1] and in experiment [2] was “inactive” each time. Moreover, the MIC in the experiment with Micrococcus luteus, against Escherichia coli, in the experiment on Staphylococcus aureus, in the experiment on Proteus hauseri and in the experiment with Salmonella typhimurium was above 100 µg/mL throughout. Further, the IC50 is 25.9 µM in the experiment on K562, 19.3 µM in the experiment with A549 and 19.5 µM in [3].

With `CC1(C)S[C@@H]2[C@H](NC(=O)[C@H](N)c3ccccc3)C(=O)N2[C@H]1C(=O)O` [AMPICILLIN], the MIC against Micrococcus luteus came to 0.2 µg/mL (≈ 0.572 µM); against Escherichia coli it was 3.13 µg/mL (≈ 8.96 µM); against Staphylococcus aureus, 0.78 µg/mL (≈ 2.23 µM); against Proteus hauseri, 0.39 µg/mL (≈ 1.12 µM); with Salmonella typhimurium it was 0.78 µg/mL (≈ 2.23 µM).

Consider `C[C@H]1C(=O)N2c3ccccc3[C@]3(O)C[C@@H](n4cnc5ccccc5c4=O)C(=O)N1[C@H]23`, for which the inhibition entry in [1] and in experiment [2] was “inactive” in each case. Further, the MIC with Micrococcus luteus, with Escherichia coli, with Staphylococcus aureus, against Proteus hauseri and against Salmonella typhimurium was above 100 µg/mL each time. For the same molecule, the IC50 in the experiment on K562 is 50.4 µM; in the experiment with A549 it was 21.9 µM; in experiment [3], 78.1 µM.

Regarding `CC(C)[C@@H]1N[C@@H]2N(C1=O)c1ccccc1[C@]21C[C@@H]2C(=O)N[C@](C)(O1)c1nc3ccccc3c(=O)n12` [FUMIQUINAZOLINE L], the inhibition entry in [1] and in [2] was “inactive” throughout. Besides, the MIC in the experiment on Micrococcus luteus was 100 µg/mL (≈ 212 µM); in the experiment on Escherichia coli, above 100 µg/mL; with Staphylococcus aureus it was above 100 µg/mL; in the experiment on Proteus hauseri, above 100 µg/mL; against Salmonella typhimurium, 100 µg/mL (≈ 212 µM). Further, the IC50 with K562 is above 100 µM; in the experiment with A549, above 100 µM; in experiment [3], 20.2 µM.

Molecule `C[C@@H]1O[C@@H](O[C@H]2C[C@@H](O)[C@]3(CO)[C@H]4[C@H](O)C[C@]5(C)[C@@H](C6=CC(=O)OC6)CC[C@]5(O)[C@@H]4CC[C@]3(O)C2)[C@H](O)[C@H](O)[C@H]1O` [OUABAIN] displayed a 50% inhibitory concentration (IC50) in experiment [3] of 6.43 µM.

On to `CC(C)[C@H]1C(=O)N2c3ccccc3[C@]3(O)C[C@H](n4cnc5ccccc5c4=O)C(=O)N1[C@H]23`, for which the inhibition result in experiment [1] and in experiment [2] was “inactive” throughout. Besides, the MIC in the experiment on Micrococcus luteus was above 100 µg/mL; against Escherichia coli it was above 100 µg/mL; in the experiment with Staphylococcus aureus it was 100 µg/mL (≈ 232 µM); in the experiment with Proteus hauseri, 100 µg/mL (≈ 232 µM); in the experiment on Salmonella typhimurium, 100 µg/mL (≈ 232 µM). For the same molecule, the concentration for half-maximal inhibition (IC50) with K562 is 17.8 µM; with A549, 29.2 µM; in [3], 56.8 µM.

Take `C[C@@H]1NC(=O)[C@@H](Cc2c[nH]c3ccccc23)n2c1nc1ccccc1c2=O` [FUMIQUINAZOLINE F]: the inhibition result in experiment [1] and in experiment [2] was “inactive” in each case. Besides, the MIC with Micrococcus luteus is above 100 µg/mL; in the experiment on Escherichia coli, above 100 µg/mL; with Staphylococcus aureus it was above 100 µg/mL; in the experiment with Proteus hauseri it was 100 µg/mL (≈ 279 µM); in the experiment on Salmonella typhimurium, above 100 µg/mL. Also, the IC50 in the experiment on K562 is above 100 µM; with A549, above 100 µM; in experiment [3], 17.4 µM.

On to `CC(C)[C@@H]1N[C@@H]2N(C1=O)c1ccccc1[C@]2(O)C[C@@H]1C(=O)N[C@@H](C)c2nc3ccccc3c(=O)n21`, for which the inhibition entry in [1] and in [2] was “inactive” in each case. Also, the MIC with Micrococcus luteus, in the experiment on Escherichia coli, against Staphylococcus aureus, against Proteus hauseri and with Salmonella typhimurium was above 100 µg/mL in each case. In addition, the IC50 turned out to be 13.8 µM in the experiment with K562, 15.8 µM with A549 and 34.3 µM in experiment [3].

As to `COc1cccc2c1C(=O)c1c(O)c3c(c(O)c1C2=O)C[C@@](O)(C(=O)CO)C[C@@H]3O[C@H]1C[C@H](N)[C@H](O)[C@H](C)O1` [DOXORUBICIN], the IC50 with K562 is 1.46 µM; in the experiment on A549, 1.83 µM.

As for `CC(C)[C@H]1C(=O)N2c3ccccc3[C@]3(O)C[C@@H](n4cnc5ccccc5c4=O)C(=O)N1[C@H]23`, the inhibition result in experiment [1] and in [2] was “inactive” each time. Besides, the minimum inhibitory concentration (MIC) against Micrococcus luteus, against Escherichia coli, with Staphylococcus aureus, in the experiment on Proteus hauseri and against Salmonella typhimurium was above 100 µg/mL each time. Also, the IC50 was found to be 14.4 µM in the experiment with K562, 18.6 µM with A549 and 37.9 µM in experiment [3].
